Measured values taken from DBAASP.
≈ marks a conversion by molar mass, not a printed value.

Experiments:
Assay in all cases: ≥ marks a high value that may be exact or a test limit, other limits are often not marked, values filed in µg/mL are converted to µM
Escherichia coli MG1655 = system: Escherichia coli MG1655
[1] = system: Klebsiella pneumoniae ATCC 700603
[2] = system: Pseudomonas aeruginosa ATCC 10145
[3] = system: Staphylococcus aureus ATCC 25923
Escherichia coli JW0013 = system: Escherichia coli JW0013

MIC (Escherichia coli JW0013)	SMILES	other results
2 µM (≈ 4.8 µg/mL)	CC[C@H](C)[C@H](NC(=O)[C@H](CCCN=C(N)N)NC(=O)[C@H](CCCN=C(N)N)NC(=O)[C@@H]1CCCN1C(=O)[C@@H]1CCCN1C(=O)[C@H](CCCN=C(N)N)NC(=O)[C@@H]1CCCN1C(=O)[C@H](CCCN=C(N)N)NC(=O)[C@@H]1CCCN1C(=O)[C@H](CC(C)C)NC(=O)[C@H](Cc1ccc(O)cc1)NC(=O)[C@@H]1CCCN1C(=O)[C@@H]1CCCN1C(=O)[C@H](CCCCN)NC(=O)[C@H](CC(=O)O)NC(=O)[C@@H](N)CC(C)C)C(=O)N[C@@H](Cc1ccc(O)cc1)C(=O)N[C@@H](CC(N)=O)C(=O)N[C@@H](CCCN=C(N)N)C(N)=O [LDKPPYLPRPRPPRRIYNR]	
0.3 µM (≈ 0.707 µg/mL)	CC[C@H](C)[C@H](NC(=O)[C@@H]1CCCN1C(=O)[C@H](CCCN=C(N)N)NC(=O)[C@@H]1CCCN1C(=O)[C@@H]1CCCN1C(=O)[C@@H](NC(=O)[C@@H]1CCCN1C(=O)[C@H](CCCN=C(N)N)NC(=O)[C@@H]1CCCN1C(=O)[C@H](CCCCN)NC(=O)[C@H](Cc1ccc(O)cc1)NC(=O)[C@H](CO)NC(=O)CNC(=O)[C@H](CCCCN)NC(=O)[C@H](CC(=O)O)NC(=O)[C@@H](N)C(C)C)[C@@H](C)O)C(=O)N[C@@H](Cc1ccc(O)cc1)C(=O)N[C@@H](CC(N)=O)C(=O)N[C@@H](CCCN=C(N)N)C(=O)N[C@@H](CC(N)=O)C(=O)O [VDKGSYKPRPTPPRPIYNRN]	

More lines, now with the values behind:

SMILES	MIC (Escherichia coli JW0013)	other results
CC(C)C[C@H](NC(=O)[C@H](Cc1ccc(O)cc1)NC(=O)[C@H](Cc1cnc[nH]1)NC(=O)[C@H](CCCCN)NC(=O)[C@H](CC(C)C)NC(=O)[C@H](C)NC(=O)[C@H](CC(C)C)NC(=O)[C@H](CCCCN)NC(=O)CNC(=O)[C@@H](NC(=O)[C@@H](NC(=O)[C@H](CCCCN)NC(=O)[C@@H](NC(=O)[C@H](CCC(=O)O)NC(=O)[C@H](C)NC(=O)[C@H](CCCCN)NC(=O)[C@H](CCCCN)NC(=O)[C@H](CC(C)C)NC(=O)[C@H](CC(C)C)NC(=O)[C@@H](NC(=O)[C@H](CCCN=C(N)N)NC(=O)[C@H](Cc1c[nH]c2ccccc12)NC(=O)CN)[C@@H](C)O)C(C)C)[C@@H](C)O)C(C)C)C(=O)O [GWRTLLKKAEVKTVGKLALKHYL]		MIC (Escherichia coli MG1655): 8.3 µM (≈ 22 µg/mL); MIC [1]: 4.15 µM (≈ 11 µg/mL); MIC [2]: 0.25 µM (≈ 0.663 µg/mL); MIC [3]: 4.15 µM (≈ 11 µg/mL)
CC[C@H](C)[C@H](NC(=O)[C@H](CCCN=C(N)N)NC(=O)[C@H](CCCN=C(N)N)NC(=O)[C@@H]1CCCN1C(=O)[C@@H]1CCCN1C(=O)[C@H](CCCN=C(N)N)NC(=O)[C@@H]1CCCN1C(=O)[C@H](CCCN=C(N)N)NC(=O)[C@@H]1CCCN1C(=O)[C@H](CC(C)C)NC(=O)[C@H](Cc1ccc(O)cc1)NC(=O)CNC(=O)[C@@H]1CCCN1C(=O)[C@H](CCCCN)NC(=O)[C@H](CC(=O)O)NC(=O)[C@@H](N)C(C)C)C(=O)N[C@@H](Cc1ccc(O)cc1)C(=O)N[C@@H](CC(N)=O)C(=O)N[C@@H](CCCN=C(N)N)C(N)=O [VDKPGYLPRPRPPRRIYNR]	2.04 µM (≈ 4.8 µg/mL)	
CC[C@H](C)[C@H](NC(=O)[C@H](CCCN=C(N)N)NC(=O)[C@H](CCCN=C(N)N)NC(=O)[C@@H]1CCCN1C(=O)[C@@H]1CCCN1C(=O)[C@H](CCCN=C(N)N)NC(=O)[C@H](CCCN=C(N)N)NC(=O)[C@H](CCCN=C(N)N)NC(=O)[C@@H]1CCCN1C(=O)[C@H](CC(C)C)NC(=O)[C@H](Cc1ccc(O)cc1)NC(=O)[C@@H]1CCCN1C(=O)[C@H](CCCN=C(N)N)NC(=O)[C@H](CCCCN)NC(=O)[C@H](CC(=O)O)NC(=O)[C@@H](N)C(C)C)C(=O)N[C@@H](Cc1ccc(O)cc1)C(=O)N[C@@H](CC(N)=O)C(=O)N[C@@H](CCCN=C(N)N)C(N)=O [VDKRPYLPRRRPPRRIYNR]	0.638 µM (≈ 1.6 µg/mL)	
CC[C@H](C)[C@H](NC(=O)[C@H](CCCN=C(N)N)NC(=O)[C@H](CCCN=C(N)N)NC(=O)[C@@H]1CCCN1C(=O)[C@@H]1CCCN1C(=O)[C@H](CCCN=C(N)N)NC(=O)[C@@H]1CCCN1C(=O)[C@H](CCCN=C(N)N)NC(=O)[C@@H]1CCCN1C(=O)[C@H](CC(C)C)NC(=O)[C@H](Cc1ccc(O)cc1)NC(=O)[C@@H]1CCCN1C(=O)[C@@H]1CCCN1C(=O)[C@H](CCCCN)NC(=O)[C@H](Cc1c[nH]c2ccccc12)NC(=O)[C@@H](N)C(C)C)C(=O)N[C@@H](Cc1ccc(O)cc1)C(=O)N[C@@H](CC(N)=O)C(=O)N[C@@H](CCCN=C(N)N)C(N)=O [VWKPPYLPRPRPPRRIYNR]	1.95 µM (≈ 4.8 µg/mL)	
